Data from publication PMC6764161 (ACS Central Science, 2019).

What was measured:
rat sEH = assay: IC50 determination for sEH inhibitors; assay type: biochemical; conditions: potency ratio on rat sEH, Table S1
[1] = target: T1, soluble epoxide hydrolase (sEH) (Rattus norvegicus, UniProt P80299); assay: In vivo displacement assay in rat; conditions: TCU 0.1 mg/kg, second compound 3 mg/kg, oral gavage
T1 sequence (P80299 1-554): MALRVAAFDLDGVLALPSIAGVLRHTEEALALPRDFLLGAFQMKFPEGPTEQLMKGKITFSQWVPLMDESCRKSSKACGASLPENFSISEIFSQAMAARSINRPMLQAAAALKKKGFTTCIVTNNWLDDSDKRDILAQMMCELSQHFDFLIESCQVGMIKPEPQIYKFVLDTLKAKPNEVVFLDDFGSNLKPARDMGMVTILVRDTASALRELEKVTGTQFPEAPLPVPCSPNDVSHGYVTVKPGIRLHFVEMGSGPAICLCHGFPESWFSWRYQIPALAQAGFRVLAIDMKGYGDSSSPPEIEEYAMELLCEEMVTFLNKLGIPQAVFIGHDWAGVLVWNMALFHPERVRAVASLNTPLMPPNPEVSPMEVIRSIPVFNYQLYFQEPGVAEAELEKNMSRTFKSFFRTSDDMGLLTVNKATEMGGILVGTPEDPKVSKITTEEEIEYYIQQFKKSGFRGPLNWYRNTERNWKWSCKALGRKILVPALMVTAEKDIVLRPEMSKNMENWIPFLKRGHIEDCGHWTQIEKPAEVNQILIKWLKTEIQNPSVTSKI

[2] = patients, cited from earlier work

Row | SMILES | fold less potent than TIPU (rat sEH) | displacement of sEH-bound TCU by second compound at 168 h [1] | time until which effect is maintained ([2]; beyond 24 h) [days] | time within which majority is cleared from dosing [2] [h]
1 | CC[C@H](C)C(=O)N1CCC(NC(=O)Nc2c(F)cccc2F)CC1 [DFPU, (S)-1-(2,6-difluorophenyl)-3-(1-(2-methylbutanoyl)piperidin-4-yl)urea] | ~16 666 fold | could not be displaced |  | 
2 | COC(=O)[C@H](c1ccccc1Cl)N1CCc2sccc2C1 [clopidogrel] |  |  | 7 | ≤ 6
